Test results from US7914785B2, “B-cell depleting agents, like anti-CD20 antibodies or fragments thereof for the treatment of chronic fatigue syndrome” (Bergen Teknologieverforing AS, priority 2009, dated 2011).

Legend:
[1] = tested on: CFS symptoms in patients with chronic fatigue syndrome; experiment: Pilot treatment of three CFS patients with Rituximab infusions and weekly oral Methotrexate; format: in vivo, human; conditions: pilot patient 1, weekly oral low-dose 7.5 to 12.5 mg per week; for clinical response on CFS symptoms: used for 22 weeks
Text: The symptom score of CFS symptoms which is in a range of 0 to 10 wherein 0 means no symptoms while 10 refers to very severe symptoms of CFS.
Methotrexat (Mtx) is a therapeutic agent with known (but not well understood) immunomodulatory properties.

[2] = tested on: B-cells in rheumatoid arthritis patients; conditions: given orally on a weekly schedule for rheumatoid arthritis; cited from earlier work
CFS patients = conditions: 99 CFS patients; cited from earlier work
[3] = tested on: patients with long-standing fatigue; conditions: 12 patients treated; cited from earlier work
patients with CFS = conditions: six patients with CFS; cited from earlier work

Question: Which “start of CFS symptom recovery after onset of weekly treatment” value [1] does the source give for `CN(Cc1cnc2nc(N)nc(N)c2n1)c1ccc(C(=O)N[C@@H](CCC(=O)O)C(=O)O)cc1` [Methotrexate] here?
Answer: The value was 10 weeks.

Question: What about the “clinical response on CFS symptoms” value [1] of the same molecule?
Answer: Its value is “significant and moderate clinical response on CFS symptoms”.

Question: What about the “clinical response on CFS symptoms” value ([1]; listed as Mtx) of the same molecule?
Answer: The value was “gradual and moderate CFS symptom recovery”.

Question: And the “start of CFS symptom recovery after onset of weekly treatment” value ([1]; listed as Mtx)?
Answer: The value was 12 weeks.

Question: And the B-cell depletion [2]?
Answer: The B-cell depletion was “moderate B-cell depletion”.

Question: For `CC[C@H]1OC(=O)[C@H](C)[C@@H](O[C@H]2C[C@@](C)(OC)[C@@H](O)[C@H](C)O2)[C@H](C)[C@@H](O[C@@H]2O[C@H](C)C[C@H](N(C)C)[C@H]2O)[C@](C)(O)C[C@@H](C)CN(C)[C@H](C)[C@@H](O)[C@]1(C)O` [azithromycin], which “CFS patients with improvement” value (CFS patients) is on record?
Answer: The value was 59%.

Question: For `CC(C)[C@H](N)C(=O)OCC(CO)OCn1cnc2c(=O)nc(N)[nH]c21` (some centres unmarked) [valganciclovir], which “patients with improvement of the symptoms” value [3] is on record?
Answer: Its value is “nine”.

Question: With etanercept as the molecule, how does the clinical outcome (patients with CFS) read?
Answer: Its clinical outcome is “clinical benefit”.
